Results taken from ChEMBL document CHEMBL4765321, “Discovery of new thieno[3,2-d]pyrimidine derivatives targeting EGFR NSCLCs by the conformation constrained strategy” (Eur J Med Chem, 2020).
Active and inactive are the calls of the source. The calls are words filed in the database; no cut-off is given here.

How the values were obtained:
A549 [1] = assay: Antiproliferative activity against human A549 cells harboring wild type EGFR assessed as reduction in cell viability measured after 72 hrs by MTT assay; assay type: cell-based; conditions: A549, 72 h
PC-9 = assay: Antiproliferative activity against human PC9 cells harboring EGFRdel19 mutant assessed as reduction in cell viability measured after 72 hrs by MTT assay; assay type: functional, cell-based; conditions: PC-9, 72 h
[2] = molecular target: T1, Epidermal growth factor receptor (Homo sapiens, UniProt P00533); assay: Binding affinity to wild type EGFR in human A549 cells assessed as increase in protein signal at 50 uM incubated for 4 hrs followed by heating from 40 to 64 degC for 5 mins by CETSA based western blot analysis; assay type: cell-based; conditions: a549, 4.083 h, time 245 min
[3] = molecular target: Epidermal growth factor receptor (Homo sapiens, UniProt P00533, L858R/T790M); assay: Inhibition of N-terminal GST-fused human EGFR L858R/T790M double mutant cytoplasmic domain (669 to 1210 residues) expressed in baculovirus expression system using 5-FAM-EEPLYWSFPAKKK-CONH2 as substrate incubated for 20 mins by Mobility shift assay
[4] = molecular target: T1, Epidermal growth factor receptor; assay: Inhibition of N-terminal GST-fused human wild type EGFR cytoplasmic domain (669 to 1210 residues) expressed in baculovirus expression system using 5-FAM-EEPLYWSFPAKKK-CONH2 as substrate incubated for 20 mins by Mobility shift assay
[5] = tested on: Epidermal growth factor receptor (Homo sapiens), P00533 [L858R,T790M]; assay: Inhibition of N-terminal GST-fused human EGFR L858R/T790M double mutant cytoplasmic domain (669 to 1210 residues) expressed in baculovirus expression system using 5-FAM-EEPLYWSFPAKKK-CONH2 as substrate at 1 uM incubated for 20 mins by Mobility shift assay
[6] = tested on: Epidermal growth factor receptor (Homo sapiens), P00533 [L858R,T790M]; assay: Binding affinity to EGFR L858R/T790M double mutant in human H1975 cells assessed as increase in protein signal at 50 uM incubated for 4 hrs followed by heating from 40 to 64 degC for 5 mins by CETSA based western blot analysis; assay type: cell-based; conditions: NCI-H1975, time 245.0 min
L02 = assay: Cytotoxicity against human L0-2 cells assessed as reduction in cell viability measured after 72 hrs by MTT assay; assay type: ADME, cell-based; conditions: L02, 72 h
Homo sapiens = species on record: Homo sapiens; assay: Selectivity index, ratio of IC50 for N-terminal GST-fused human wild type EGFR cytoplasmic domain (669 to 1210 residues) expressed in baculovirus expression system to IC50 for N-terminal GST-fused human EGFR L858R/T790M double mutant cytoplasmic domain (669 to 1210 residues) expressed in baculovirus expression system
NCI-H1975 [7] = assay: cells; assay type: functional, cell-based; conditions: Homo sapiens, NCI-H1975, 72 h
A549 [8] = assay: Inhibition of cell migration in human A549 cells at 5 uM incubated for 48 hrs by scratch wound healing assay; assay type: cell-based; conditions: a549, 48 h
A549 [9] = assay: Inhibition of colony formation in human A549 cells at 0.31 to 2.5 uM measured after 10 days by crystal violet staining based ELISA; assay type: cell-based; conditions: a549, 240 h, dose 0.31-2.5 µM, time 10 day
[10] = tested on: Epidermal growth factor receptor (Homo sapiens), P00533 [L858R,T790M]; assay: Inhibition of EGF-induced phosphorylation of EGFR L858R/T790M double mutant in human H1975 cells at 10 uM incubated for 2 hrs followed by EGF stimulation for 10 mins by western blot analysis; assay type: cell-based; conditions: NCI-H1975, time 130.0 min
[11] = tested on: Epidermal growth factor receptor (Homo sapiens), P00533 [L858R,T790M]; assay: Inhibition of EGF-induced phosphorylation of EGFR L858R/T790M double mutant in human H1975 cells at 1 uM incubated for 2 hrs followed by EGF stimulation for 10 mins by western blot analysis; assay type: cell-based; conditions: NCI-H1975, time 130.0 min
NCI-H1975 [12] = assay: Inhibition of cell migration in human H1975 cells at 0.5 to 5 uM incubated for 48 hrs by scratch wound healing assay; assay type: functional, cell-based; conditions: dose 0.5-5 µM
[13] = tested on: Epidermal growth factor receptor (Homo sapiens), P00533 [L858R,T790M]; assay: Inhibition of EGFR L858R/T790M double mutant in human H1975 cells assessed as inhibition of EGF-induced ERK phosphorylation at 1 uM incubated for 2 hrs followed by EGF stimulation for 10 mins by western blot analysis; assay type: cell-based; conditions: NCI-H1975, time 130.0 min
[14] = molecular target: T1, Epidermal growth factor receptor; assay: Inhibition of EGFR in human A549 cells assessed as inhibition of ERK phosphorylation at 1 to 10 uM incubated for 2 hrs followed by EGF stimulation for 10 mins by western blot analysis; assay type: cell-based; conditions: a549, 2.167 h, dose 1-10 µM, time 130 min
NCI-H1975 [15] = assay: Inhibition of colony formation in human H1975 cells measured after 10 days by crystal violet staining based ELISA; assay type: functional, cell-based; conditions: dose 0.31-2.5 µM, time 10.0 day
[16] = tested on: Epidermal growth factor receptor (Homo sapiens), P00533 [L858R,T790M]; assay: Inhibition of EGFR L858R/T790M double mutant in human H1975 cells assessed as inhibition of EGF-induced ERK phosphorylation incubated for 2 hrs followed by EGF stimulation for 10 mins by western blot analysis; assay type: cell-based; conditions: NCI-H1975, dose 1-10 µM, time 130.0 min
[17] = molecular target: T1, Epidermal growth factor receptor; assay: Inhibition of EGFR phosphorylation in human A549 cells at 1 to 10 uM incubated for 2 hrs followed by EGF stimulation for 10 mins by western blot analysis; assay type: cell-based; conditions: a549, 2.167 h, dose 1-10 µM, time 130 min
[18] = tested on: Epidermal growth factor receptor (Homo sapiens), P00533 [L858R,T790M]; assay: Inhibition of EGF-induced phosphorylation of EGFR L858R/T790M double mutant in human H1975 cells incubated for 2 hrs followed by EGF stimulation for 10 mins by western blot analysis; assay type: cell-based; conditions: NCI-H1975, dose 1-10 µM, time 130.0 min
[19] = tested on: Epidermal growth factor receptor (Homo sapiens), P00533 [L858R,T790M]; assay: Inhibition of EGF-induced phosphorylation of EGFR L858R/T790M double mutant in human H1975 cells at 3 uM incubated for 2 hrs followed by EGF stimulation for 10 mins by western blot analysis; assay type: cell-based; conditions: NCI-H1975, time 130.0 min
[20] = tested on: Epidermal growth factor receptor (Homo sapiens), P00533 [L858R,T790M]; assay: Inhibition of EGFR L858R/T790M double mutant in human H1975 cells assessed as inhibition of EGF-induced ERK phosphorylation at 3 uM incubated for 2 hrs followed by EGF stimulation for 10 mins by western blot analysis; assay type: cell-based; conditions: NCI-H1975, time 130.0 min
[21] = tested on: Epidermal growth factor receptor (Homo sapiens), P00533 [L858R,T790M]; assay: Inhibition of EGFR L858R/T790M double mutant in human H1975 cells assessed as inhibition of EGF-induced ERK phosphorylation at 10 uM incubated for 2 hrs followed by EGF stimulation for 10 mins by western blot analysis; assay type: cell-based; conditions: NCI-H1975, time 130.0 min

Structure (SMILES) | IC50 (A549 [1]) [µM] | IC50 (PC-9) [µM] | IC50 [3] [µM] | IC50 [4] [µM] | inhibition [5] | IC50 (L02) [µM] | Ratio IC50 (Homo sapiens) | IC50 (NCI-H1975 [7]) [µM] | other results
O=c1ccc2ccc(Oc3nc(Nc4ccc(N5CCC(N6CCCCC6)CC5)c(F)c4)nc4ccsc34)cc2[nH]1 | 10.4 | 16.7 | 0.11 | 12.4 | 87% | 5.6 | 113 | 10.9 | Activity [2]: Not Active; Activity [6]: Active
CN1CCN(c2nc(Oc3ccc4ccc(=O)[nH]c4c3)c3sccc3n2)CC1 |  |  | > 1 |  | inactive |  |  |  | 
O=c1ccc2ccc(Oc3nc(Nc4ccc(F)cc4)nc4ccsc34)cc2[nH]1 |  |  | > 1 | > 10 | 8% |  |  |  | 
CCN1CCN(c2nc(Oc3ccc4ccc(=O)[nH]c4c3)c3sccc3n2)CC1 |  |  | > 1 | > 10 | inactive | > 20 |  |  | 
O=c1ccc2ccc(Oc3nc(Nc4ccc(CN5CCOCC5)cc4)nc4ccsc34)cc2[nH]1 |  |  |  | > 10 | 60% |  |  |  | 
CN1CCN(Cc2ccc(Nc3nc(Oc4ccc5ccc(=O)[nH]c5c4)c4sccc4n3)cc2)CC1 | 8.08 | 19.3 | 0.2 | > 10 | 83% | 7.99 | > 50 | 10.8 | 
CN1CCN(c2ccc(Nc3nc(Oc4ccc5ccc(=O)[nH]c5c4)c4sccc4n3)cc2)CC1 | 3.46 | 5.78 | 0.25 | > 10 | 82% | > 50 | > 40 | 4.15 | 
CCN1CCN(Cc2ccc(Nc3nc(Oc4ccc5ccc(=O)[nH]c5c4)c4sccc4n3)cc2)CC1 | 5.34 | 17.5 | 0.24 | > 10 | 81% | 5.23 | > 42 | 10.1 | 
CN1CCN(c2ccc(Nc3nc(Oc4ccc5ccc(=O)[nH]c5c4)c4sccc4n3)cc2F)CC1 | > 20 | > 50 |  | > 10 | 82% | 8.37 |  | 14.5 | 
C#Cc1cccc(Nc2ncnc3cc(OCCOC)c(OCCOC)cc23)c1 [ERLOTINIB] |  | > 50 |  |  |  | 7.25 |  | > 20 | 
CN1CCN(c2ccc(Nc3nc(Oc4ccc5ccc(=O)[nH]c5c4)c4sccc4n3)nc2)CC1 | > 20 |  | > 1 | > 10 | 32% | > 20 |  |  | 
O=c1ccc2ccc(Oc3nc(Nc4ccc(N5CCC(N6CCCCC6)CC5)cc4)nc4ccsc34)cc2[nH]1 |  |  |  | > 10 | 83% |  |  |  | 
C=CC(=O)Nc1cccc(Oc2nc(Nc3ccc(N4CCN(C)CC4)cc3)nc3ccsc23)c1 [OLMUTINIB] |  | 16.5 |  |  |  | 0.026 |  | 9.61 | 
CCN1CCN(c2ccc(Nc3nc(Oc4ccc5ccc(=O)[nH]c5c4)c4sccc4n3)c(OC)c2)CC1 | > 20 | 24.8 | 0.33 | > 10 | 75% | 4.4 | > 30 | 10.1 | 
CN(C)CCNc1ccc(Nc2nc(Oc3ccc4ccc(=O)[nH]c4c3)c3sccc3n2)cc1F | 2.92 | 16 | 0.23 | 14 | 81% | 3.2 | 61 | 10.8 | Activity (A549 [8]): Non-Toxic; Activity (A549 [9]): Toxic; inhibition [10]: 89%; inhibition [11]: 34%; inhibition (NCI-H1975 [12]): Active; inhibition [13]: 5%; inhibition (INH) [14]: Not Active; inhibition (NCI-H1975 [15]): Dose-dependent effect; inhibition [16]: Dose-dependent effect; inhibition (INH) [17]: Not Active; Activity [2]: Not Active; inhibition [18]: Dose-dependent effect; Activity [6]: Active; inhibition [19]: 43%; inhibition [20]: 53%; inhibition [21]: 66%
COc1cccc(Nc2nc(Oc3ccc4ccc(=O)[nH]c4c3)c3sccc3n2)c1 |  |  | > 1 | > 10 | 22% |  |  |  | 
O=c1ccc2ccc(Oc3nc(Nc4ccc(N5CCS(=O)(=O)CC5)cc4)nc4ccsc34)cc2[nH]1 |  |  |  | > 10 | 64% |  |  |  | 
O=c1ccc2ccc(Oc3nc(Nc4ccc(N5CCOCC5)cc4)nc4ccsc34)cc2[nH]1 |  |  |  | > 10 | 56% | 12.5 |  |  | 
O=c1ccc2ccc(Oc3nc(Nc4ccc(N5CCOCC5)c(F)c4)nc4ccsc34)cc2[nH]1 |  |  | > 1 | > 10 | 39% |  |  |  | 
COc1cc(N2CCN(C)CC2)ccc1Nc1nc(Oc2ccc3ccc(=O)[nH]c3c2)c2sccc2n1 | > 20 | 22.1 | 0.33 | > 10 | 74% | 6.76 | > 30 | 6.95 | 
